Measurements taken from patent publication US20070037825A1, “Enhancing the effect of radioimmunotherapy in the treatment of tumors” (priority 2002, published 2007).
Structures can show the parent of a compound that is named as a salt. Marks after values point to notes of the source that are not given here.

Legend:
[1] = test system: LS174T human colorectal adenocarcinoma xenografts; assay: Radioimmunotherapy of SQ LS174T xenografts in athymic mice, with or without COMPOUND I mesylate; conditions: for Relative tumor growth: relative to no treatment = 1
LS174T SQ xenografts = assay: Effect of COMPOUND I on radiosensitivity of adenocarcinoma xenografts (external radiation); conditions: P=0.127, Mantel-Cox logrank analysis
LS174T cells = assay: Effect of COMPOUND I mesylate on radiosensitivity of in vitro grown cells; format: cell-based, human

Molecule	Tq (days) ([1]; quadrupling time calculated on day 10 (*), COMPOUND I mesylate PO BID 2 mg/mouse/day)	Relative tumor growth [1]	difference between radiation plus COMPOUND I mesylate and radiation only (LS174T SQ xenografts)	effect on radiosensitivity, combined with radiation (LS174T cells; monolayer, irradiation 1.95 Gy/min, total doses 1 Gy and 6 Gy)	effect on cell cycle (LS174T cells; pharmacologically relevant concentrations)	tumor response ([1]; escalating doses)	Tq (days) ([1]; quadrupling time calculated on day 28 (**) after 0.25 mCi ^131I-B72.3 IV)	tumor response ([1]; single dose of 0.5 mCi or similar doses)	effect of combined treatment with COMPOUND I mesylate in vitro (LS174T cells; ^131I-labeled antibody plus COMPOUND I mesylate)
Cc1ccc(NC(=O)c2ccc(CN3CCN(C)CC3)cc2)cc1Nc1nccc(-c2cccnc2)n1 [COMPOUND I mesylate]	7.75* days	1	no statistical differences	not sufficient in vitro to synchronize all cells	Arrest of LS174T cells in the G1 phase				
^131I-B72.3: iodine-131 labeled anti-TAG72 monoclonal antibody B72.3 (radioimmunoconjugate) (conjugate, chains of the INN, looked up, iodine-131 label) VH: QVQLQQSDAELVKPGASVKISCKASGYTFTDHAIHWAKQKPEQGLEWIGYISPGNDDIKYNEKFKGKATLTADKSSSTAYMQLNSLTSEDSAVYFCKRSYYGHWGQGTTLTVSS VL: DIQMTQSPASLSVSVGETVTITCRASENIYSNLAWYQQKQGKSPQLLVYAATNLADGVPSRFSGSGSGTQYSLKINSLQSEDFGSYYCQHFWGTPYTFGGGTRLEIK		2.4				cures and tumor growth arrest	18.95** days	growth delay but no cures	neither additive nor synergistic effects are measurable
